Assay results taken from the NIST ThermoML archive (doi:10.1016/j.jct.2016.03.026).
Numbers after ± are expanded uncertainties.

Assay: xn = mol fraction of the nth substance listed
Conditions: 263.15 K, Fluid (supercritical or subcritical phases), Vibrating tube method, x1 = 0.97

O=C=O [carbon dioxide] + CO
Conditions	mass density [kg/m3]
13625 kPa	1031.69 ± 0.8
13650 kPa	1031.77 ± 0.8
13675 kPa	1031.94 ± 0.8
13700 kPa	1031.97 ± 0.8
13725 kPa	1032.1 ± 0.8
13750 kPa	1032.18 ± 0.8
13775 kPa	1032.26 ± 0.8
13800 kPa	1032.34 ± 0.8
13825 kPa	1032.42 ± 0.8
13850 kPa	1032.53 ± 0.8
13875 kPa	1032.61 ± 0.8
13900 kPa	1032.75 ± 0.8
13925 kPa	1032.83 ± 0.8
13950 kPa	1032.91 ± 0.8
13975 kPa	1032.99 ± 0.8
14000 kPa	1033.08 ± 0.8
14025 kPa	1033.16 ± 0.8
14050 kPa	1033.24 ± 0.8
14075 kPa	1033.38 ± 0.8
14100 kPa	1033.48 ± 0.8
14125 kPa	1033.57 ± 0.8
14150 kPa	1033.65 ± 0.8
14175 kPa	1033.73 ± 0.8
14200 kPa	1033.81 ± 0.8
14225 kPa	1033.9 ± 0.8
14250 kPa	1033.97 ± 0.8
14275 kPa	1034.13 ± 0.8
14300 kPa	1034.22 ± 0.8
14325 kPa	1034.3 ± 0.8
14350 kPa	1034.38 ± 0.8
14375 kPa	1034.46 ± 0.8
14400 kPa	1034.54 ± 0.8
14425 kPa	1034.62 ± 0.8
14450 kPa	1034.7 ± 0.8
14475 kPa	1034.86 ± 0.8
14500 kPa	1034.95 ± 0.8
14525 kPa	1035.03 ± 0.8
14550 kPa	1035.11 ± 0.8
14575 kPa	1035.19 ± 0.8
14600 kPa	1035.28 ± 0.8
14625 kPa	1035.36 ± 0.8
14650 kPa	1035.44 ± 0.8
14675 kPa	1035.52 ± 0.8
14700 kPa	1035.62 ± 0.8
14725 kPa	1035.77 ± 0.8
14750 kPa	1035.83 ± 0.8
14775 kPa	1035.93 ± 0.8
14800 kPa	1036.01 ± 0.8
14825 kPa	1036.09 ± 0.8
14850 kPa	1036.17 ± 0.8
14875 kPa	1036.25 ± 0.8
14900 kPa	1036.34 ± 0.8
14925 kPa	1036.42 ± 0.8
14950 kPa	1036.51 ± 0.8
14975 kPa	1036.63 ± 0.8
15000 kPa	1036.74 ± 0.8
15025 kPa	1036.78 ± 0.8
15050 kPa	1036.9 ± 0.8
15075 kPa	1036.96 ± 0.8
15100 kPa	1037.07 ± 0.8
15125 kPa	1037.15 ± 0.8
15150 kPa	1037.23 ± 0.8
15175 kPa	1037.31 ± 0.8
15200 kPa	1037.39 ± 0.8
15225 kPa	1037.5 ± 0.8
15250 kPa	1037.56 ± 0.8
15275 kPa	1037.66 ± 0.8
15300 kPa	1037.72 ± 0.8
15325 kPa	1037.8 ± 0.8
15350 kPa	1037.91 ± 0.8
15375 kPa	1038.01 ± 0.8
15400 kPa	1038.07 ± 0.8
15425 kPa	1038.19 ± 0.8
15450 kPa	1038.28 ± 0.8
15475 kPa	1038.37 ± 0.8
15500 kPa	1038.45 ± 0.8
15525 kPa	1038.53 ± 0.8
15550 kPa	1038.61 ± 0.8
15575 kPa	1038.7 ± 0.8
15600 kPa	1038.78 ± 0.8
15625 kPa	1038.86 ± 0.8
15650 kPa	1038.94 ± 0.8
15675 kPa	1039.02 ± 0.8
15700 kPa	1039.1 ± 0.8
15725 kPa	1039.19 ± 0.8
15750 kPa	1039.26 ± 0.8
15775 kPa	1039.35 ± 0.8
15800 kPa	1039.43 ± 0.8
15825 kPa	1039.51 ± 0.8
15850 kPa	1039.61 ± 0.8
15875 kPa	1039.7 ± 0.8
15900 kPa	1039.79 ± 0.8
15925 kPa	1039.88 ± 0.8
15950 kPa	1039.97 ± 0.8
15975 kPa	1040.06 ± 0.8
16000 kPa	1040.16 ± 0.8
16025 kPa	1040.2 ± 0.8
16050 kPa	1040.31 ± 0.8
16075 kPa	1040.4 ± 0.8
16100 kPa	1040.49 ± 0.8
16125 kPa	1040.57 ± 0.8
16150 kPa	1040.65 ± 0.8
16175 kPa	1040.73 ± 0.8
16200 kPa	1040.81 ± 0.8
16225 kPa	1040.89 ± 0.8
16250 kPa	1040.97 ± 0.8
16275 kPa	1041.05 ± 0.8
16300 kPa	1041.16 ± 0.8
16325 kPa	1041.25 ± 0.8
16350 kPa	1041.32 ± 0.8
16375 kPa	1041.38 ± 0.8
16400 kPa	1041.46 ± 0.8
16425 kPa	1041.59 ± 0.8
16450 kPa	1041.66 ± 0.8
16475 kPa	1041.72 ± 0.8
16500 kPa	1041.79 ± 0.8
16525 kPa	1041.91 ± 0.8
16550 kPa	1041.95 ± 0.8
16575 kPa	1042.08 ± 0.8
16600 kPa	1042.19 ± 0.8
16625 kPa	1042.27 ± 0.8
16650 kPa	1042.33 ± 0.8
16675 kPa	1042.38 ± 0.8
16700 kPa	1042.51 ± 0.8
16725 kPa	1042.57 ± 0.8
16750 kPa	1042.68 ± 0.8
16775 kPa	1042.75 ± 0.8
16800 kPa	1042.82 ± 0.8
16825 kPa	1042.91 ± 0.8
16850 kPa	1043.01 ± 0.8
16875 kPa	1043.08 ± 0.8
16900 kPa	1043.17 ± 0.8
16925 kPa	1043.24 ± 0.8
16950 kPa	1043.33 ± 0.8
16975 kPa	1043.4 ± 0.8
17000 kPa	1043.49 ± 0.8
17025 kPa	1043.57 ± 0.8
17050 kPa	1043.64 ± 0.8
17075 kPa	1043.74 ± 0.8
17100 kPa	1043.82 ± 0.8
17125 kPa	1043.9 ± 0.8
17150 kPa	1043.98 ± 0.8
17175 kPa	1044.06 ± 0.8
17200 kPa	1044.14 ± 0.8
17225 kPa	1044.22 ± 0.8
17250 kPa	1044.31 ± 0.8
17275 kPa	1044.39 ± 0.8
17300 kPa	1044.44 ± 0.8
17325 kPa	1044.55 ± 0.8
17350 kPa	1044.63 ± 0.8
17375 kPa	1044.71 ± 0.8
17400 kPa	1044.79 ± 0.8
17425 kPa	1044.87 ± 0.8
17450 kPa	1044.94 ± 0.8
17475 kPa	1045.04 ± 0.8
17500 kPa	1045.12 ± 0.8
17525 kPa	1045.2 ± 0.8
17550 kPa	1045.28 ± 0.8
17575 kPa	1045.33 ± 0.8
17600 kPa	1045.44 ± 0.8
17625 kPa	1045.52 ± 0.8
17650 kPa	1045.61 ± 0.8
17675 kPa	1045.69 ± 0.8
17700 kPa	1045.77 ± 0.8
17725 kPa	1045.81 ± 0.8
17750 kPa	1045.89 ± 0.8
17775 kPa	1045.97 ± 0.8
17800 kPa	1046.04 ± 0.8
17825 kPa	1046.11 ± 0.8
17850 kPa	1046.26 ± 0.8
17875 kPa	1046.32 ± 0.8
17900 kPa	1046.37 ± 0.8
17925 kPa	1046.44 ± 0.8
17950 kPa	1046.51 ± 0.8
17975 kPa	1046.58 ± 0.8
18000 kPa	1046.66 ± 0.8
18025 kPa	1046.79 ± 0.8
18050 kPa	1046.85 ± 0.8
18075 kPa	1046.9 ± 0.8
18100 kPa	1046.98 ± 0.8
18125 kPa	1047.07 ± 0.8
18150 kPa	1047.15 ± 0.8
18175 kPa	1047.23 ± 0.8
18200 kPa	1047.31 ± 0.8
18225 kPa	1047.37 ± 0.8
18250 kPa	1047.47 ± 0.8
18275 kPa	1047.55 ± 0.8
18300 kPa	1047.62 ± 0.8
18325 kPa	1047.69 ± 0.8
18350 kPa	1047.75 ± 0.8
18375 kPa	1047.82 ± 0.8
18400 kPa	1047.88 ± 0.8
18425 kPa	1047.96 ± 0.8
18450 kPa	1048.04 ± 0.8
18475 kPa	1048.11 ± 0.8
18500 kPa	1048.2 ± 0.8
18525 kPa	1048.28 ± 0.8
18550 kPa	1048.31 ± 0.8
18575 kPa	1048.43 ± 0.8
18600 kPa	1048.53 ± 0.8
18625 kPa	1048.58 ± 0.8
18650 kPa	1048.64 ± 0.8
18675 kPa	1048.74 ± 0.8
18700 kPa	1048.83 ± 0.8
18725 kPa	1048.85 ± 0.8
18750 kPa	1048.93 ± 0.8
18775 kPa	1048.93 ± 0.8
18800 kPa	1049.06 ± 0.8
18825 kPa	1049.09 ± 0.8
18850 kPa	1049.34 ± 0.8
18875 kPa	1049.42 ± 0.8
18900 kPa	1049.5 ± 0.8
18925 kPa	1049.58 ± 0.8
18950 kPa	1049.66 ± 0.8
18975 kPa	1049.74 ± 0.8
19000 kPa	1049.82 ± 0.8
19025 kPa	1049.91 ± 0.8
19050 kPa	1049.99 ± 0.8
19075 kPa	1050.07 ± 0.8
19100 kPa	1050.15 ± 0.8
19125 kPa	1050.23 ± 0.8
19150 kPa	1050.31 ± 0.8
19175 kPa	1050.39 ± 0.8
19200 kPa	1050.47 ± 0.8
19225 kPa	1050.56 ± 0.8
19250 kPa	1050.63 ± 0.8
19275 kPa	1050.72 ± 0.8
19300 kPa	1050.8 ± 0.8
19325 kPa	1050.88 ± 0.8
19350 kPa	1050.96 ± 0.8
19375 kPa	1051.04 ± 0.8
19400 kPa	1051.12 ± 0.8
19425 kPa	1051.21 ± 0.8
19450 kPa	1051.29 ± 0.8
19475 kPa	1051.35 ± 0.8
19500 kPa	1051.45 ± 0.8
19525 kPa	1051.53 ± 0.8
19550 kPa	1051.58 ± 0.8
19575 kPa	1051.69 ± 0.8
19600 kPa	1051.77 ± 0.8
19625 kPa	1051.83 ± 0.8
19650 kPa	1051.89 ± 0.8
19675 kPa	1052.02 ± 0.8
